Assay results published in ChEMBL document CHEMBL1151508, “Preparation and activities of 4-epi and 4-deoxy-4-amino analogs derived from 9-deoxo-8a-aza-8a-homoerythromycin A” (1994).
≈ marks a conversion by molar mass, not a printed value.

Assays:
Format in all cases: functional
[1] = tested on: Haemophilus influenzae; assay: In vitro minimum inhibitory concentration against Haemophilus influenzae MB5363.
[2] = tested on: Escherichia coli; assay: In vitro minimum inhibitory concentration against Escherichia coli MB2884.
[3] = tested on: Enterococcus faecalis; assay: In vitro minimum inhibitory concentration against Enterococcus faecalis MB5407.
[4] = tested on: Klebsiella pneumoniae; assay: In vitro minimum inhibitory concentration against Klebsiella pneumoniae MB4005.
[5] = tested on: Staphylococcus aureus; assay: In vitro minimum inhibitory concentration against Staphylococcus aureus MB2865.
[6] = tested on: Streptococcus pneumoniae; assay: In vitro minimum inhibitory concentration against Streptococcus pneumoniae CL2883.

SMILES | MIC [1] [µg/mL] | MIC [2] [µg/mL] | MIC [3] [µg/mL] | MIC [4] [µg/mL] | MIC [5] [µg/mL] | MIC [6] [µg/mL]
CC[C@H]1OC(=O)[C@H](C)[C@@H](O[C@H]2C[C@@](C)(OC)[C@H](n3cccc3)[C@H](C)O2)[C@H](C)[C@@H](O[C@@H]2O[C@H](C)C[C@H](N(C)C)[C@H]2OC(=O)OCC2c3ccccc3-c3ccccc32)[C@](C)(O)C[C@@H](C)N(C)C[C@H](C)[C@@H](O)[C@]1(C)O | 16 (≈ 15.7 µM) | 4 (≈ 3.92 µM) | 4 (≈ 3.92 µM) | 8 (≈ 7.84 µM) | 8 (≈ 7.84 µM) | 0.25 (≈ 0.245 µM)
CC[C@H]1OC(=O)[C@H](C)[C@@H](O[C@H]2C[C@@](C)(OC)[C@H](N(C)C)[C@H](C)O2)[C@H](C)[C@@H](O[C@@H]2O[C@H](C)C[C@H](N(C)C)[C@H]2OC(=O)OCC2c3ccccc3-c3ccccc32)[C@](C)(O)C[C@@H](C)N(C)C[C@H](C)[C@@H](O)[C@]1(C)O | 2 (≈ 2 µM) | 0.5 (≈ 0.501 µM) | 16 (≈ 16 µM) | 2 (≈ 2 µM) | 32 (≈ 32.1 µM) | 0.5 (≈ 0.501 µM)
CC[C@H]1OC(=O)[C@H](C)[C@@H](O[C@H]2C[C@@](C)(OC)[C@@H](n3cccc3)[C@H](C)O2)[C@H](C)[C@@H](O[C@@H]2O[C@H](C)C[C@H](N(C)C)[C@H]2OC(=O)OCC2c3ccccc3-c3ccccc32)[C@](C)(O)C[C@@H](C)N(C)C[C@H](C)[C@@H](O)[C@]1(C)O | 4 (≈ 3.92 µM) | 4 (≈ 3.92 µM) | 2 (≈ 1.96 µM) | 4 (≈ 3.92 µM) | 4 (≈ 3.92 µM) | 0.13 (≈ 0.127 µM)
CC[C@H]1OC(=O)[C@H](C)[C@@H](O[C@H]2C[C@@](C)(OC)[C@H](NC(C)=O)[C@H](C)O2)[C@H](C)[C@@H](O[C@@H]2O[C@H](C)C[C@H](N(C)C)[C@H]2OC(=O)OCC2c3ccccc3-c3ccccc32)[C@](C)(O)C[C@@H](C)N(C)C[C@H](C)[C@@H](O)[C@]1(C)O | 4 (≈ 3.95 µM) | 1 (≈ 0.988 µM) | 8 (≈ 7.9 µM) | 4 (≈ 3.95 µM) | 16 (≈ 15.8 µM) | 0.5 (≈ 0.494 µM)
CC[C@H]1OC(=O)[C@H](C)[C@@H](O[C@H]2C[C@@](C)(OC)[C@@H](N(C)C)[C@H](C)O2)[C@H](C)[C@@H](O[C@@H]2O[C@H](C)C[C@H](N(C)C)[C@H]2OC(=O)OCC2c3ccccc3-c3ccccc32)[C@](C)(O)C[C@@H](C)N(C)C[C@H](C)[C@@H](O)[C@]1(C)O | 2 (≈ 2 µM) | 1 (≈ 1 µM) | 8 (≈ 8.01 µM) | 2 (≈ 2 µM) | 8 (≈ 8.01 µM) | 0.5 (≈ 0.501 µM)
CC[C@H]1OC(=O)[C@H](C)[C@@H](O[C@H]2C[C@@](C)(OC)[C@@H](O)[C@H](C)O2)[C@H](C)[C@@H](O[C@@H]2O[C@H](C)C[C@H](N(C)C)[C@H]2O)[C@](C)(O)C[C@@H](C)C(=O)[C@H](C)[C@@H](O)[C@]1(C)O [ERYTHROMYCIN] | 2 (≈ 2.73 µM) | 32 (≈ 43.6 µM) | 1 (≈ 1.36 µM) | 32 (≈ 43.6 µM) | 0.25 (≈ 0.341 µM) | 0.02 (≈ 0.0273 µM)
CC[C@H]1OC(=O)[C@H](C)[C@@H](O[C@H]2C[C@@](C)(OC)[C@@H](NC(C)=O)[C@H](C)O2)[C@H](C)[C@@H](O[C@@H]2O[C@H](C)C[C@H](N(C)C)[C@H]2OC(=O)OCC2c3ccccc3-c3ccccc32)[C@](C)(O)C[C@@H](C)N(C)C[C@H](C)[C@@H](O)[C@]1(C)O | 8 (≈ 7.9 µM) | 2 (≈ 1.98 µM) | 8 (≈ 7.9 µM) | 2 (≈ 1.98 µM) | 2 (≈ 1.98 µM) | 0.25 (≈ 0.247 µM)
C=CCN1C[C@H](C)[C@@H](O)[C@](C)(O)[C@@H](CC)OC(=O)[C@H](C)[C@@H](O[C@H]2C[C@@](C)(OC)[C@@H](N)[C@H](C)O2)[C@H](C)[C@@H](O[C@@H]2O[C@H](C)C[C@H](N(C)C)[C@H]2OC(=O)OCC2c3ccccc3-c3ccccc32)[C@](C)(O)C[C@H]1C | 1 (≈ 1 µM) | 0.25 (≈ 0.251 µM) | 4 (≈ 4.01 µM) | 0.13 (≈ 0.13 µM) | 1 (≈ 1 µM) | 0.03 (≈ 0.0301 µM)
CC[C@H]1OC(=O)[C@H](C)[C@@H](O[C@H]2C[C@@](C)(OC)[C@@H](O)[C@H](C)O2)[C@H](C)[C@@H](O[C@@H]2O[C@H](C)C[C@H](N(C)C)[C@H]2O)[C@](C)(O)C[C@@H](C)CN(C)[C@H](C)[C@@H](O)[C@]1(C)O [AZITHROMYCIN] | 0.5 (≈ 0.668 µM) | 1 (≈ 1.34 µM) | 4 (≈ 5.34 µM) | 2 (≈ 2.67 µM) | 1 (≈ 1.34 µM) | 0.03 (≈ 0.0401 µM)

Now from value to compound:

MIC [1] [µg/mL] | MIC [2] [µg/mL] | MIC [3] [µg/mL] | MIC [4] [µg/mL] | MIC [5] [µg/mL] | MIC [6] [µg/mL] | SMILES
0.5 (≈ 0.502 µM) | 0.5 (≈ 0.502 µM) | 2 (≈ 2.01 µM) | 0.25 (≈ 0.251 µM) | 1 (≈ 1 µM) | 0.03 (≈ 0.0301 µM) | C=CCN1C[C@H](C)[C@@H](O)[C@](C)(O)[C@@H](CC)OC(=O)[C@H](C)[C@@H](O[C@H]2C[C@@](C)(OC)[C@H](N)[C@H](C)O2)[C@H](C)[C@@H](O[C@@H]2O[C@H](C)C[C@H](N(C)C)[C@H]2OC(=O)OCC2c3ccccc3-c3ccccc32)[C@](C)(O)C[C@H]1C
0.5 (≈ 0.499 µM) | 0.25 (≈ 0.249 µM) | 1 (≈ 0.998 µM) | 0.13 (≈ 0.13 µM) | 0.25 (≈ 0.249 µM) | 0.03 (≈ 0.0299 µM) | CC[C@H]1OC(=O)[C@H](C)[C@@H](O[C@H]2C[C@@](C)(OC)[C@H](N)[C@H](C)O2)[C@H](C)[C@@H](O[C@@H]2O[C@H](C)C[C@H](N(C)C)[C@H]2OC(=O)OCC2c3ccccc3-c3ccccc32)[C@](C)(O)C[C@@H](C)N(CCF)C[C@H](C)[C@@H](O)[C@]1(C)O
1 (≈ 1.34 µM) | 0.25 (≈ 0.334 µM) | 4 (≈ 5.35 µM) | 0.13 (≈ 0.174 µM) | 2 (≈ 2.67 µM) | 0.03 (≈ 0.0401 µM) | CC[C@H]1OC(=O)[C@H](C)[C@@H](O[C@H]2C[C@@](C)(OC)C(N)[C@H](C)O2)[C@H](C)[C@@H](O[C@@H]2O[C@H](C)C[C@H](N(C)C)[C@H]2O)[C@](C)(O)C[C@@H](C)N(C)C[C@H](C)[C@@H](O)[C@]1(C)O (some centres undefined)
0.25 (≈ 0.258 µM) | 0.13 (≈ 0.134 µM) | 2 (≈ 2.06 µM) | 0.13 (≈ 0.134 µM) | 1 (≈ 1.03 µM) | 0.06 (≈ 0.0618 µM) | CC[C@H]1OC(=O)[C@H](C)[C@@H](O[C@H]2C[C@@](C)(OC)[C@@H](N)[C@H](C)O2)[C@H](C)[C@@H](O[C@@H]2O[C@H](C)C[C@H](N(C)C)[C@H]2OC(=O)OCC2c3ccccc3-c3ccccc32)[C@](C)(O)C[C@@H](C)N(C)C[C@H](C)[C@@H](O)[C@]1(C)O
1 (≈ 1.34 µM) | 1 (≈ 1.34 µM) | 1 (≈ 1.34 µM) | 4 (≈ 5.34 µM) | 0.5 (≈ 0.668 µM) | 0.06 (≈ 0.0801 µM) | CC[C@H]1OC(=O)[C@H](C)[C@@H](O[C@H]2C[C@@](C)(OC)[C@H](O)[C@H](C)O2)[C@H](C)[C@@H](O[C@@H]2O[C@H](C)C[C@H](N(C)C)[C@H]2O)[C@](C)(O)C[C@@H](C)N(C)C[C@H](C)[C@@H](O)[C@]1(C)O
1 (≈ 1.34 µM) | 1 (≈ 1.34 µM) | 2 (≈ 2.67 µM) | 1 (≈ 1.34 µM) | 0.5 (≈ 0.668 µM) | 0.03 (≈ 0.0401 µM) | CC[C@H]1OC(=O)[C@H](C)[C@@H](O[C@H]2C[C@@](C)(OC)[C@@H](O)[C@H](C)O2)[C@H](C)[C@@H](O[C@@H]2O[C@H](C)C[C@H](N(C)C)[C@H]2O)[C@](C)(O)C[C@@H](C)N(C)C[C@H](C)[C@@H](O)[C@]1(C)O [L-701677]
1 (≈ 0.998 µM) | 0.25 (≈ 0.249 µM) | 2 (≈ 2 µM) | 0.13 (≈ 0.13 µM) | 0.5 (≈ 0.499 µM) | 0.03 (≈ 0.0299 µM) | CC[C@H]1OC(=O)[C@H](C)[C@@H](O[C@H]2C[C@@](C)(OC)[C@@H](N)[C@H](C)O2)[C@H](C)[C@@H](O[C@@H]2O[C@H](C)C[C@H](N(C)C)[C@H]2OC(=O)OCC2c3ccccc3-c3ccccc32)[C@](C)(O)C[C@@H](C)N(CCF)C[C@H](C)[C@@H](O)[C@]1(C)O
0.5 (≈ 0.646 µM) | 0.5 (≈ 0.646 µM) | 4 (≈ 5.17 µM) | 0.25 (≈ 0.323 µM) | 2 (≈ 2.58 µM) | 0.06 (≈ 0.0775 µM) | C=CCN1C[C@H](C)[C@@H](O)[C@](C)(O)[C@@H](CC)OC(=O)[C@H](C)[C@@H](O[C@H]2C[C@@](C)(OC)C(N)[C@H](C)O2)[C@H](C)[C@@H](O[C@@H]2O[C@H](C)C[C@H](N(C)C)[C@H]2O)[C@](C)(O)C[C@H]1C (some centres undefined)
0.5 (≈ 0.515 µM) | 0.25 (≈ 0.258 µM) | 2 (≈ 2.06 µM) | 0.25 (≈ 0.258 µM) | 1 (≈ 1.03 µM) | 0.06 (≈ 0.0618 µM) | CC[C@H]1OC(=O)[C@H](C)[C@@H](O[C@H]2C[C@@](C)(OC)[C@H](N)[C@H](C)O2)[C@H](C)[C@@H](O[C@@H]2O[C@H](C)C[C@H](N(C)C)[C@H]2OC(=O)OCC2c3ccccc3-c3ccccc32)[C@](C)(O)C[C@@H](C)N(C)C[C@H](C)[C@@H](O)[C@]1(C)O
0.5 (≈ 0.644 µM) | 0.5 (≈ 0.644 µM) | 2 (≈ 2.58 µM) | 0.5 (≈ 0.644 µM) | 1 (≈ 1.29 µM) | 0.06 (≈ 0.0773 µM) | CCCN1C[C@H](C)[C@@H](O)[C@](C)(O)[C@@H](CC)OC(=O)[C@H](C)[C@@H](O[C@H]2C[C@@](C)(OC)C(N)[C@H](C)O2)[C@H](C)[C@@H](O[C@@H]2O[C@H](C)C[C@H](N(C)C)[C@H]2O)[C@](C)(O)C[C@H]1C (some centres undefined)
